In paper PMC11356819 (Molecules, 2024):

Tests used:
[1] = tested on: U87-WT cells; assay: cellular uptake in U87-WT cells; type: cell-based, human; settings: incubation 1 h
Description: Consistent with this assumption, uptake of [^18F]4 and, to a lesser extent, the ^18F-fluoroethoxylated analog [^18F]5 by both cell lines was considerably higher than that of (S)-[^18F]2.
Human glioblastoma cells with a c.395G>A knock-in mutation encoding mIDH1R132H (HTB-14IG™) and the corresponding wildtype cells (HTB-14™) were purchased from the American Type Culture Collection (ATCC). The cells were grown under standard culture conditions (5% CO2 and 95% air at 37 °C) in Eagle’s Minimum Essential Medium (MEM) supplemented with 10% fetal bovine serum (FBS) and antibiotics (penicillin–streptomycin mixed solution, Gibco, Thermo Fisher Scientific, Oberhausen, Germany).
For the cellular uptake studies, 1.5 × 10^5 cells were seeded into gelatin-coated 12-well transwell plates and incubated in 1 mL MEM (without FBS and antibiotics) containing 18.5 kBq (0.5 µCi) of the corresponding radiotracer. After incubation at 21 °C for 1 h, the supernatant was collected, the cells were lysed with 40 mM NaOH and the radioactivity of both fractions was measured with a gamma counter. The total protein concentration of the cell lysate was measured by a bicinchoninic acid (BCA) assay. The radiotracer uptake was calculated as the ratio of radioactivity in the cell fraction and the supernatant and normalized by protein content (% uptake/100 µg protein). Statistical analysis of the results was performed with Originlab Pro 2023b using two-tailed t-tests with a significance level of 0.05 to identify significant differences between groups.

[2] = PET biodistribution in healthy mice; type: in vivo, C57BL/6 mice
Description: The in vivo stability, whole-body biodistribution and excretory pathways of [^18F]4 were investigated by small animal PET imaging in healthy C57BL/6 mice (Figure 5). […] In contrast, renal excretion was negligible, with very low radioactivity accumulation in the urinary bladder. Background uptake into muscles and other tissues was also low, with maximum SUVbw values of 52 ± 6 after 16 min followed by a decline to 18 ± 2 after 120 min. […] Nevertheless, while limited BBB penetrance might be an issue in patients with an intact BBB, brain tumors like gliomas are often associated with partial BBB disruption, which could facilitate tumor delivery of the probe. […] With this in mind and based on the reasonable in vivo stability and low background uptake, the tumor accumulation and mIDH-selectivity of [^18F]4 were further investigated in a subcutaneous tumor model.
All experiments were carried out in accordance with the EU directive 2010/63/EU for animal experiments and the German Animal Welfare Act (TierSchG, 2006) and were approved by the regional authorities (LANUV NRW; 81-02.04.2022.A442). Six male CB17-SCID mice and four male C57BL/6 mice (Janvier Labs, Le Genest-Saint-Isle, France) were housed in groups in individually ventilated cages (Allentown LLC, Allentown, NJ, USA) in a temperature- and humidity-controlled room (20 ± 2 °C, 50–60% humidity) on a 12:12 h light–dark cycle. Throughout the experiments, the animals had ad libitum access to water and food.
The mice were anesthetized with isoflurane (5% for induction, 2% for maintenance) in O2/air (3:7), and a catheter for tracer injection was inserted into the lateral tail vein. They were placed on an animal holder (Medres, Cologne, Germany) and fixed with a tooth bar in a respiratory mask. Body temperature was maintained at 37 °C by warming the animal bed. Eyes were protected from drying with Bepanthen eye and nose ointment (Bayer, Leverkusen, Germany). Respiratory rate was monitored and maintained at around 40–60 breaths per minute by adjusting the isoflurane concentration. A PET scan in list mode was conducted using a Focus 220 micro PET scanner (CTI-Siemens, Erlangen, Germany) with a resolution at the center of the field of view of 1.4 mm. Data acquisition started with intravenous tracer injection and ended after 120 min. This was followed by a 10 min transmission scan using a ^57Co point source for attenuation correction. After the scan was completed, the catheter was removed and the animals were allowed to wake up in their home cage. Data were histogrammed in three ways: (1) 4 × 30 min frames for visual display, (2) 28 frames (2 × 1 min, 2 × 2 min, 6 × 4 min, 18 × 5 min) for determination of time–activity curves, (3) 53 frames (12 × 10 s, 6 × 30 s, 15 × 1 min, 20 × 5 min) for kinetic modelling. Full 3D rebinning was followed by an iterative OSEM3D/MAP reconstruction algorithm with attenuation and decay correction. The resulting voxel sizes were 0.47 mm × 0.47 mm × 0.80 mm. All further analysis was performed with the software VINCI 5.21 (Max Planck Institute for Metabolism Research, Cologne, Germany). Standardized uptake values based on body weight (SUVbw) were determined according to the following equation: SUVbw = radioactivity [Bq/g] × body weight [g] × 100/injected dose [Bq]. Statistical analysis of the results was performed with a 2-way analysis of variance (ANOVA) followed by Sidak’s multiple comparison test to identify significant differences between the two tumor types.

Compound: COc1cc(NCc2cc3cc([18F])ccc3[nH]c2=O)ccc1C#N [[^18F]4]
- cellular uptake [1]: 4.7 ± 1.4 % per 100 µg protein
- max. SUVbw liver ([2]; after 3 min, i.v., n = 4): 304 ± 54
- maximum SUVbw muscles and other tissues (background) ([2]; after 16 min): 52 ± 6
- SUVbw bone ([2]; after 120 min): 67 ± 8
- SUVbw muscles and other tissues (background) ([2]; after 120 min): 18 ± 2
- max. SUVbw intestine ([2]; after 120 min, i.v., n = 4): 5344 ± 1693
- excretory pathway ([2]; mouse, in vivo): almost exclusive hepatobiliary excretion
- renal excretion ([2]; mouse, in vivo): negligible
- brain uptake of radioactivity ([2]; throughout all measurements): very low
